Assay results from patent US20220257774A1, “AROMATIC AMINE AR AHD BET TARGETING PROTEIN DEGRADATION CHIMERA COMPOUND AND USE” (HINOVA PHARMACEUTICALS INC., priority 2019, published 2022).
Where two headings read alike, the source gives them in different places.

Legend:
[1] = system: 22RV1 cells; assay: Inhibition of the proliferation of drug-resistant prostate cancer cell 22RV1 (CCK-8); format: cell-based; details: 22RV1 cells (enzalutamide-resistant), same method
Outline: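 22RV1 cells, 1000/well in RPMI1640 with 10% FBS, treated in duplicate with 9-point 3-fold dilutions from 10 μM (0.1% DMSO final). After 6 days at 37 °C, CCK-8 added for 1 h and OD450 read. IC50 from dose-response inhibition fit.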

[2] = system: LNCaP/AR cells; assay: Inhibition of the proliferation of LNCap/AR cells (CCK-8); format: cell-based; details: read-out: LNCap/AR IC50
Outline: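 LNCaP/AR cells (1000/well, RPMI1640 + 10% FBS) were treated for 6 days at 37 °C with 9-point 3-fold dilutions from 10 μM final, 0.1% DMSO, in duplicate. Viability was read by CCK-8 absorbance at 450 nm after 1 h, and IC50 came from a dose-response-inhibition fit.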

[3] = 144 h, LNCaP/AR cells, 6 days culture, CCK-8

What does the source list for Cc1ccc(-c2c(C)noc2C)cc1N(c1ccc(C2(C#N)CC2)cc1)C1CN(CC2CN(c3ccc4c(c3)C(=O)N(C3CCC(=O)NC3=O)C4=O)C2)C1 (stereo not drawn) [Compound 67, 1-(4-((5-(3,5-dimethylisoxazol-4-yl)-2-methylphenyl)(1-((1-(2-(2,6-dioxopiperidin-3-yl)-1,3-dioxoisoindolin-5-yl)azetidin-3-yl)methyl)azetidine-3-yl)amino)phenyl)cyclopropane-1-carbonitrile]?
IC50 ([1]; Homo sapiens): < 100 nM; IC50 [2, 3]: 101 to 500 nM

How did the IC50 ([1]; Homo sapiens) turn out when Cc1ccc(-c2c(C)noc2C)cc1N(CC1CN([C@H]2C[C@H](Nc3cc4c(cc3F)C(=O)N(C3CCC(=O)NC3=O)C4=O)C2)C1)c1ccc(C2(C#N)CC2)cc1 (stereo partly drawn) [Compound 72, 1-(4-((5-(3,5-dimethylisoxazol-4-yl)-2-methylphenyl][(1-((1r,3r)-3-((2-(2,6-dioxopiperidin-3-yl)-6-fluoro-1,3-dioxoisoindolin-5-yl)amino)cyclobutyl)azetidin-3-yl)methyl)amino)phenyl)cyclopropane-1-nitrile] was run?
Its IC50 is greater than 2000 nM.

And the IC50 [2, 3]?
Its IC50 is greater than 2000 nM.

Cc1ccc(-c2c(C)noc2C)cc1N(C[C@H]1CC[C@H](CNc2cc3c(cc2F)CN(C2CCC(=O)NC2=O)C3=O)CC1)c1ccc(C#N)c(Cl)c1 (stereo partly drawn) [Compound 136] was tested. Which IC50 ([1]; Homo sapiens) did it give?
The IC50 was 101 to 500 nM.

And the IC50 ([2]; LNCaP/AR, 144 h)?
The IC50 was 501 to 2000 nM.

With Cc1ccc(-c2c(C)noc2C)cc1N(CCCCCCNc1ccc2c(c1)CN(C1CCC(=O)NC1=O)C2=O)c1ccc(C2(C#N)CC2)cc1 (stereo not drawn) [Compound 61, 1-(4-((5-(3,5-dimethylisoxazol-4-yl)-2-methylphenyl)(6-((2-(2,6-dioxopiperidin-3-yl)-1-oxoisoindolin-5-yl)amino)hexyl)amino)phenyl)cyclopropane-1-nitrile] as the compound, how does the IC50 ([1]; Homo sapiens) read?
The IC50 was less than 100 nM.

And the IC50 [2, 3]?
Its IC50 is less than 100 nM.

How did the IC50 ([1]; Homo sapiens) turn out when Cc1ccc(-c2c(C)noc2C)cc1N(CC1CN(c2cc3c(cc2F)C(=O)N(C2CCC(=O)NC2=O)C3)C1)c1ccc(C2(C#N)CC2)cc1 (stereo not drawn) [Compound 156] was run?
Its IC50 is 501 to 2000 nM.

And the IC50 [2, 3]?
Its IC50 is 101 to 500 nM.

For Cc1ccc(-c2c(C)noc2C)cc1N(CC(C)OC1CN(c2ccc3c(c2)C(=O)N(C2CCC(=O)NC2=O)C3)C1)c1ccc(C2(C#N)CC2)cc1 (stereo not drawn) [Compound 179, 1-(4-((5-(3,5-Dimethylisoxazol-4-yl)-2-methylphenyl)(2-((1-(2-(2,6-dioxopiperidin-3-yl)-3-oxoisoindolin-5-yl)azacyclobutane-3-yl)oxy)propyl)amino)phenyl)cyclopropane-1-nitrile], which IC50 ([1]; Homo sapiens) is on record?
The IC50 was greater than 2000 nM.

What about the IC50 [2, 3] of the same compound?
Its IC50 is greater than 2000 nM.

Which results are given for Cc1ccc(-c2c(C)noc2C)cc1N(CC(C)OC1CCN(c2cc3c(cc2F)C(=O)N(C2CCC(=O)NC2=O)C3=O)CC1)c1ccc(C2(C#N)CC2)cc1 (stereo not drawn) [Compound 188]?
IC50 ([1]; Homo sapiens): 101 to 500 nM; IC50 [2, 3]: 501 to 2000 nM

Which IC50 ([1]; Homo sapiens) does the source give for Cc1ccc(-c2c(C)noc2C)cc1N(CCCC1CCN(c2ccc3c(c2)CN(C2CCC(=O)NC2=O)C3=O)CC1)c1ccc(C2(C#N)CC2)cc1 (stereo not drawn) [Compound 32, 1-(4-((5-(3,5-Dimethylisoxazol-4-yl)-2-methylphenyl)(3-(1-(2-(2,6-dioxopiperidin-3-yl)-1-oxoisoindolin-5-yl)piperidin-4-yl)propyl)amino)phenyl)cyclopropane-1-nitrile] here?
The IC50 was less than 100 nM.

What about the IC50 [2, 3] of the same compound?
The IC50 was 101 to 500 nM.

What does the source list for Cc1ccc(-c2c(C)noc2C)cc1N(CC1CCN(C2CN(c3ccc4c(c3)C(=O)N(C3CCC(=O)NC3=O)C4=O)C2)CC1)c1ccc(C2(C#N)CC2)cc1 (stereo not drawn) [Compound 109, 1-(4-((5-(3,5-Dimethylisoxazol-4-yl)-2-methylphenyl)((1-(1-(2-(2,6-dioxopiperidin-3-yl)-1,3-dioxoisoindolin-5-yl)azetidin-3-yl)piperidin-4-yl)methyl)amino)phenyl)cyclopropanecarbonitrile]?
IC50 ([1]; Homo sapiens): < 100 nM; IC50 [2, 3]: < 100 nM

Which IC50 ([1]; Homo sapiens) does the source give for CC(=O)O[C@@H]1C[C@@H](C(=O)N[C@@H](C)c2ccc(-c3scnc3C)cc2)N(C(=O)[C@@H](NC(=O)COCCCCCN(c2ccc(C#N)c(Cl)c2)c2cc(-c3c(C)n[nH]c3C)ccc2C)C(C)(C)C)C1 [Compound 45] here?
The IC50 was greater than 2000 nM.

And the IC50 ([2]; LNCaP/AR, 144 h)?
The IC50 was 501 to 2000 nM.

With Cc1ccc(-c2c(C)noc2C)cc1N(CC(C)O[C@@H]1CCN(c2ccc3c(c2)C(=O)N(C2CCC(=O)NC2=O)C3=O)C1)c1ccc(C2(C#N)CC2)cc1 (stereo partly drawn) [Compound 102, 1-(4-((5-(3,5-Dimethylisoxazol-4-yl)-2-methylphenyl)(2-(((3R)-1-(2-(2,6-dioxopiperidin-3-yl)-1,3-dioxoisoindolin-5-yl)pyrrolidin-3-yl)oxy)propyl)amino)phenyl)cyclopropanecarbonitrile] as the compound, how does the IC50 ([1]; Homo sapiens) read?
Its IC50 is greater than 2000 nM.

And the IC50 [2, 3]?
The IC50 was greater than 2000 nM.

For Cc1ccc(-c2c(C)noc2C)cc1N(CCCCNc1cc2c(cc1F)CN(C1CCC(=O)NC1=O)C2=O)c1ccc(C2(C#N)CC2)cc1 (stereo not drawn) [Compound 42, 1-(4-((5-(3,5-Dimethylisoxazol-4-yl)-2-methylphenyl)(4-((2-(2,6-dioxopiperidin-3-yl)-6-fluoro-3-oxoisoindolin-5-yl)amino)butyl)amino)phenyl)cyclopropane-1-nitrile], which IC50 ([1]; Homo sapiens) is on record?
The IC50 was 501 to 2000 nM.

What about the IC50 [2, 3] of the same compound?
The IC50 was 101 to 500 nM.

How did the IC50 [1] turn out when Cc1ccc(-c2c(C)noc2C)cc1N(CC1CCC(Nc2ccc3c(c2)C(=O)N(C2CCC(=O)NC2=O)C3=O)CC1)c1ccc(C2(C#N)CC2)cc1 (stereo not drawn) [Compound 116, 1-(4-((5-(3,5-Dimethylisoxazol-4-yl)-2-methylphenyl)((((1r,4r)-4-((2-(2,6-dioxopiperidin-3-yl)-1,3-dioxoisoindolin-5-yl)amino)cyclohexyl)methyl)amino)phenyl)cyclopropanecarbonitrile] was run?
The IC50 was greater than 2000 nM.

What about the IC50 ([2]; LNCaP/AR cells, 6 days culture, CCK-8) of the same compound?
The IC50 was 101 to 500 nM.

How did the IC50 ([1]; Homo sapiens) turn out when Cc1ccc(-c2c(C)noc2C)cc1N(CC(C)O[C@H]1CCN(c2ccc3c(c2)C(=O)N(C2CCC(=O)NC2=O)C3=O)C1)c1ccc(C2(C#N)CC2)cc1 (stereo partly drawn) [Compound 103, 1-(4-((5-(3,5-Dimethylisoxazol-4-yl)-2-methylphenyl)(2-(((3S)-1-(2-(2,6-dioxopiperidin-3-yl)-1,3-dioxoisoindolin-5-yl)pyrrolidin-3-yl)oxy)propyl)amino)phenyl)cyclopropanecarbonitrile] was run?
Its IC50 is greater than 2000 nM.

What about the IC50 [2, 3] of the same compound?
Its IC50 is greater than 2000 nM.

How did the IC50 ([1]; Homo sapiens) turn out when Cc1ccc(-c2c(C)noc2C)cc1N(CC1CC2(CCN(c3cc4c(cc3F)C(=O)N(C3CCC(=O)NC3=O)C4=O)CC2)C1)c1ccc(C2(C#N)CC2)cc1 (stereo not drawn) [Compound 154] was run?
The IC50 was 101 to 500 nM.

And the IC50 [2, 3]?
The IC50 was 501 to 2000 nM.

Which results are given for Cc1ccc(-c2c(C)noc2C)cc1N(C[C@H]1C[C@@H]1CNc1cc2c(cc1F)CN(C1CCC(=O)NC1=O)C2=O)c1ccc(C2(C#N)CC2)cc1 (stereo partly drawn) [Compound 184]?
IC50 ([1]; Homo sapiens): > 2000 nM; IC50 [2, 3]: > 2000 nM

With Cc1ccc(-c2c(C)noc2C)cc1N(CCCOC1CN(c2ccc3c(c2)CN(C2CCC(=O)NC2=O)C3=O)C1)c1ccc(C2(C#N)CC2)cc1 (stereo not drawn) [Compound 122, 1-(4-((5-(3,5-dimethylisoxazol-4-yl)-2-methylphenyl)(3-((1-(2-(2,6-dioxopiperidin-3-yl)-1-oxoisoindolin-5-yl)azetidin-3-yl)oxy)propyl)amino)phenyl)cyclopropane-1-nitrile] as the compound, how does the IC50 ([1]; Homo sapiens) read?
The IC50 was less than 100 nM.

What about the IC50 [2, 3] of the same compound?
Its IC50 is less than 100 nM.

For Cc1ccc(-c2c(C)n[nH]c2C)cc1N(CCCCCOCC(=O)N[C@H](C(=O)N1C[C@H](O)C[C@H]1C(=O)N[C@@H](C)c1ccc(-c2scnc2C)cc1)C(C)(C)C)c1ccc(C#N)c(Cl)c1 [Compound 44, (2S,4R)-1-((S)-2-(2-((5-((3-chloro-4-cyanophenyl)(5-(3,5-dimethyl-1H-pyrazol-4-yl)-2-methylphenyl)amino)pentyl)oxy)acetylamino)-3,3-dimethylbutyryl)-4-hydroxy-N—((S)-1-(4-(4-methylthiazol-5-yl)phenyl)ethyl)pyrrolidinyl-2-formamide], which IC50 ([1]; Homo sapiens) is on record?
Its IC50 is greater than 2000 nM.

And the IC50 ([2]; LNCaP/AR, 144 h)?
The IC50 was 101 to 500 nM.
